Results reported in patent US20140123342A1, “Regulation of Stomatal Apertures by Apyrases and Extracellular Nucleotides” (BOARD OF REGENTS, THE UNIVERSITY OF TEXAS SYSTEM, priority 2011, published 2014).

Legend:
Format in all cases: cell-based, Arabidopsis thaliana
[1] = test system: stomata (guard cells) in whole leaves; test: Stomatal aperture closure studies, whole leaves in the light; conditions: 10 μM, 2 h
Experimental: Stomatal Aperture Studies: Arabidopsis thaliana ecotypes Columbia (Col-0) and Wassilewskija (WS) were used as wild types in this study. Col-0, nia1nia2, atrbohD/F, R2-4A and WS plants were all grown on autoclaved Metro-Mix 200 soil at 22° C. under continuous light. The mutant seeds nia1nia2 nia2-5; CS 2356; Col-0 background) were obtained from Dr. N. M. Crawford (University of California at San Diego) and the mutant seeds atrbohD/F (Col-0 background) were obtained from Dr. J. M. Kwak (University of Maryland). The RNAi mutant apyrase line (R2-4A) is in WS background, so WS ecotype was used as the control wild type for these studies. Leaves from 2 to 3 week old Col-0 plants, or R2-4A and WS plants treated with 4 μM estradiol for 1 week after development of mature basal leaves were used for peel and whole leaf studies. Plants were placed in the dark and watered 24 h before an study. For opening studies, plants were used immediately after 24 h dark treatment and all treatments were done in the dark except for the light treated leaves or peels, thus the control stomata are dark controls. For closure studies, plants were placed in the light 3 h before an study to induce stomatal opening and all treatments were done in the light, thus the control stomata are light controls. For peel studies, epidermal peels were made from the underside of the leaf and treatments were applied to the peels for 1 h. For whole leaf studies, leaves were removed and treatments were applied for 2 h. For each treatment, about 3 or 4 peels collected from different leaves or 3 or 4 different leaves of at least two different plants were floated with the abaxial side up in petri dishes on 3 mL of Arabidopsis leaf buffer consisting of 10 mM KCl, 25 mM MES pH 6.15 (Melotto et al., 2006) and the chemical being tested. For whole leaf studies peels were collected after the treatment.
For studies testing the effects of ATPγS, ADPγS, AMPS, RB2, and PPADS (Sigma, St. Louis, Mo., USA) 20 mM stocks were made by dissolving the compounds in de-ionized water. For studies testing the effects of apyrase inhibitors, 7.5 mg/mL of NGXT191 and of inhibitor #13 (Windsor et al., 2002) was dissolved in dimethyl sulfoxide (DMSO) and then applied at a dilution of […] for a final concentration of 0.1% DMSO. ABA (Sigma, St. Louis, Mo., USA) was dissolved in ethanol in 10 mM stocks and then applied at a dilution of 1:1000. The stocks were stored at −20° C. while not in use. The production of the anti-AtAPY1 antibodies used is described by Steinebrunner et al. (2003). The crude immune and pre-immune sera were purified using protein A-Sepharose following the protocol described by Martin (1982) with the slight modification that the buffers used were azide-free. The protein-A purified sera were both used at a 1:1000 dilution in leaf stomatal aperture studies. The concentration of the immune and pre-immune sera, determined by Bradford assay (Bio-Rad), was 10.2 μg/mL and 7.7 μg/mL, respectively.
(§1) After treatment, photos of stomata were taken using a light microscope at 20×. Stomatal aperture width was measured using the image processing software ImageJ. Typically, photos were taken of 70 to 90 stomata per treatment of which only 50 stomata were measured for each treatment. For each treatment the ratio of closed stomata (width of 0) to open stomata was determined for all stomata imaged and this ratio was maintained in the 50 stomata that were measured for each treatment. Data shown uses apertures determined as width/length, however data in all studies also obtained as width only and generally width/length and width only data are in agreement with each other. Statistical significance of the measurements for the treatments was determined using the Student's t test in Microsoft Excel.

NO in guard cells = test: Detection and quantification of NO (DAF-2 DA fluorescence); conditions: 10 μM, leaf epidermal tissue, after 45 min
Experimental: Detection and Quantification of H2O2 and NO: Col-0 plants were grown on soil for 2 to 4 weeks under continuous light at 21° C. Plants were placed in the dark for 24 h to ensure closure and then transferred to the light for 1 h. After 1 h in the light, mature basal leaves were excised and blended in a Waring blender on the low setting for approximately 10 s to isolate epidermal tissues, and the tissues were placed in 3 mL of 30 mM KCl, 10 mM Mes-KOH, pH 6.16 buffer in light for 2 h (Pei et al., 2000; Murata et al., 2001). DAF-2 DA and H2DCFDA were dissolved in DMSO to produce 5 mM and 10 mM stock solutions, respectively, and these were stored at −20° C. in 30 μL, aliquots. Fifty μM H2DCFDA or 15 μM DAF-2 DA was added to the medium in the dark, and after 30 min, 10 μM ABA, 200 μM ATPγS, or buffer (ATP control) was also added to the medium in the dark for 30 min. Peels were then rinsed by decanting the treatment solution and adding 3 mL fresh leaf buffer to the peels. Peels were rinsed twice as described. A peel from each of the three treatments (ABA, ATPγS and buffer) were placed on the same microscope slide and observed sequentially. A second study was staggered 30 to 45 min after the first by loading the H2DCFDA or DAF-2 DA dye to new peels 30 to 45 min after the first round of dye was added. Confocal laser scanning microscopy (CLSM) was performed with a Leica SP2 AOBS confocal microscope (Leica Microsystems, Bannockburn, Ill., USA). Laser power was set at 15%, with an excitation of 488 nm and an emission of 525 nm. A series of 0.5 μm optical sections with average intensity projection along the z axis were collected and made into one 2D image with greater focal depth. All images were obtained with the same software scanning settings including detector gain and laser intensity settings.

[2] = test system: stomata of atrbohD/F mutant leaves; test: Stomatal closing studies with whole leaves of atrbohD/F mutant; conditions: 10 μM
Experimental: Stomatal Aperture Studies: Arabidopsis thaliana ecotypes Columbia (Col-0) and Wassilewskija (WS) were used as wild types in this study. Col-0, nia1nia2, atrbohD/F, R2-4A and WS plants were all grown on autoclaved Metro-Mix 200 soil at 22° C. under continuous light. The mutant seeds nia1nia2 nia2-5; CS 2356; Col-0 background) were obtained from Dr. N. M. Crawford (University of California at San Diego) and the mutant seeds atrbohD/F (Col-0 background) were obtained from Dr. J. M. Kwak (University of Maryland). The RNAi mutant apyrase line (R2-4A) is in WS background, so WS ecotype was used as the control wild type for these studies. […]
as §1, with “Statistical significance of the measurements for the treatments was determined using the Student's t test in Microsoft Excel.” left out

`CC1=CC(=O)CC(C)(C)[C@@]1(O)/C=C/C(C)=C\C(=O)O` [ABA, abscisic acid] was tested, and the “effect on stomatal aperture” value ([1]; both estradiol-treated WS wild-type and R2-4A plants) was “caused closure”, the “effect on stomatal aperture” value ([1]; whole leaves, light) was “induced stomatal closure” and the “increase in DAF-2 DA fluorescence in guard cells” value (NO in guard cells) was 2.5 fold. The “effect on stomatal aperture” value [2] was “no effect on stomatal aperture”.
